How the values were obtained:
Assay in all cases: Cell proliferation inhibition experiment, CellTiter-Glo (CTG) method
Type in all cases: cell-based
A-431 = details: Homo sapiens, A-431, 72 h, A-431 cells, 3 days
Method: (§1) Cell Proliferation Inhibition Experiment
(§2) Compounds were tested in the selected cell lines, and solvent is set as control, nine concentrations were detected with three parallel wells for each concentration.
(§3) 2. Reagents and Materials • 1) fetal bovine serum FBS (GIBCO, Cat #10099-141) • 2) CellTiter-Glo® Luminescent Cell Viability Assay (Promega, Cat #G7572) • 3) 96-well plate with flat clear bottom, black wall plates (Corning®, Cat #3340)
(§4) The first day: Incubation and plant of cells • 1) Cells in logarithmic growth phase were harvested and counted by cell counter. Cell viability was detected by trypan blue exclusion assay to ensure that the viability of each cell line was above 90%. • 2) Cell concentration was adjusted by diluting complete culture medium, and 90 μL cell suspension was added to a 96-well plate (T0 plate and drug plate to be tested) to make the cell density reach the specified concentration. • 3) Cells in 96-well plate were incubated overnight at condition of 37° C., 5% CO2 and 95% humidity.
(§5) The second day: Reading T0 plate • 1) 10 μL culture medium was added to T0 plate. • 2) CTG reagent was melt, while the cell plate was balanced to room temperature for 30 minutes. • 3) The same volume of CTG solution was added to each well. • 4) The cell plate was vibrated for 2 minutes on an orbital shaker to lyze the cells. • 5) The cell plate was placed at room temperature for 10 minutes to stabilize the cold light signal. • 6) The cold light value was read with EnVision.
Drug Addition • 1) Drug dilution. The compounds to be tested were dissolved and packaged, then a gradient elution was performed to obtain a solution diluted 10 times. • 2) Drug addition. […] drug solution was added into each well of the 96-well plate, which was inoculated cells, three parallel wells were set for each cell concentration. The highest concentration of the compounds to be tested on A-431 was 30 μM, nine concentrations was set with 3 times dilution; while the highest concentration on NCI-H1975 and PC-9 was 1.111 μM, 9 concentrations was set with 3 times dilution. • 3) Culture. Cells in 96-well plates in which drugs have been added were cultured at condition of 37° C., 5% CO2 and 95% humidity for 3 days, and then CTG assay was performed respectively.
(§6) The third day: reading plate at the terminal • 1) CTG reagent was melt, while the cell plate was balanced to room temperature for 30 minutes. • 2) The same volume of CTG solution was added to each well. • 3) The cell plate was vibrated for 2 minutes on an orbital shaker to lyze the cells. • 4) The cell plate was placed at room temperature for 10 minutes to stabilize the cold light signal. • 5) The cold light value was read with EnVision
(§7) Data were analyzed using GraphPad Prism 5.0 software, and non-linear S curve regression was used for fitting the data to give a dose-effect curve, IC50 value was calculated accordingly. Cell Survival Rate (%)=(Lumdrugs−Lumcontrol)/(Lumcell−Lumcontrol)×100%.

NCI-H1975 = details: for IC50: Homo sapiens, NCI-H1975, 72 h, NCI-H1975 cells, CTG, 3 days; for A-431/NCI-H1975 Selectivity: ratio of A-431 IC50 to NCI-H1975 IC50
Method: as §1, §2, §3, §4, §5
(§8) Drug Addition • 1) Drug dilution. The compounds to be tested were dissolved and packaged, then a gradient elution was performed to obtain a solution diluted 10 times. • 2) Drug addition. […] drug solution was added into each well of the 96-well plate, which was inoculated cells, three parallel wells were set for each cell concentration.
as §6, §7

PC-9 = details: Homo sapiens, PC-9, 72 h, PC-9 cells, 3 days
Method: as §1, §2, §3, §4, §5, §8, §6, §7

Row | Compound | IC50 (A-431) [nM] | IC50 (NCI-H1975) [nM] | IC50 (PC-9) [nM] | A-431/NCI-H1975 Selectivity (NCI-H1975)
1 | C=CC(=O)Nc1cc(Nc2cc(-c3ccc4c(cnn4C)c3)ncn2)c(OC)cc1N(C)CCN(C)C [compound 1] | 890 | 4.7 | 5.6 | –
2 | C=CC(=O)Nc1cc(Nc2cc(-c3ccc4cnn(C)c4c3)ncn2)c(OC)cc1N(C)CCN(C)C [compound 2] | 362 | 6.6 | 4.4 | –
3 | C=CC(=O)Nc1cc(Nc2cc(-c3cc(C(F)(F)F)c4c(cnn4C)c3)ncn2)c(OC)cc1N(C)CCN(C)C [compound 4] | 514 | 15.1 | 10.1 | 34.0
4 | C=CC(=O)Nc1cc(Nc2cc(-c3cc4cnn(C)c4cc3F)ncn2)c(OC)cc1N(C)CCN(C)C [compound 5] | 302 | 5.6 | 3.9 | –
5 | C=CC(=O)Nc1cc(Nc2cc(-c3cc(F)c4c(cnn4C)c3)ncn2)c(OC)cc1N(C)CCN(C)C [compound 6] | 1720 | 32.1 | 19.4 | 53.7
6 | C=CC(=O)Nc1cc(Nc2cc(-c3ccc4nn(C)cc4c3)ncn2)c(OC)cc1N(C)CCN(C)C [compound 7] | 129 | 11.1 | 10.7 | 11.6
7 | C=CC(=O)Nc1cc(Nc2cc(-c3ccc4ncsc4c3)ncn2)c(OC)cc1N1CCN(C)CC1 [compound 9] | 767 | 52.6 | 36.2 | 14.6
8 | C=CC(=O)Nc1cc(Nc2cc(-c3ccc4c(cnn4C)c3)ncn2)c(OC)cc1N1CC(N(C)C)C1 [compound 10] | 1990 | 47.3 | 27.7 | 42.0
9 | C=CC(=O)Nc1cc(Nc2cc(-c3ccc4c(cnn4C)c3)ncn2)c(OC)cc1C1CCN(C)CC1 [compound 11] | 2140 | 67.4 | 21.8 | 31.7
10 | C=CC(=O)Nc1cc(Nc2cc(-c3ccc4c(cnn4C)c3)ncn2)c(OC)cc1C(=O)N1CCN(C)CC1 [compound 12] | 4130 | 53.1 | 56.9 | 77.7
11 | C=CC(=O)Nc1c(N(C)CCN(C)C)cc(OC)c(Nc2cc(-c3ccc4c(cnn4C)c3)ncn2)c1F [compound 13] | 770 | 1.8 | 8.6 | –
12 | C=CC(=O)Nc1cc(Nc2cc(-c3ccc4c(cnn4CC)c3)ncn2)c(OC)cc1N(C)CCN(C)C [compound 14] | 1150 | 6.1 | 5.9 | 188.0
13 | C=CC(=O)Nc1cc(Nc2cc(-c3ccc4c(cnn4C(C)C)c3)ncn2)c(OC)cc1N(C)CCN(C)C [compound 15] | 1290 | 21.6 | 12.7 | 59.7
14 | C=CC(=O)Nc1cc(Nc2nccc(-c3ccc4cnn(C)c4c3)n2)c(OC)cc1N(C)CCN(C)C [compound 16] | 1550 | 57 | 40.5 | 27.1
15 | C=CC(=O)Nc1cc(Nc2nccc(-c3ccc4cnn(C(C)C)c4c3)n2)c(OC)cc1N(C)CCN(C)C [compound 17] | 1250 | 22.2 | 16.9 | 56.2
16 | C=CC(=O)Nc1cc(Nc2cc(-c3ccc4c(cnn4C)c3)ncn2)c(OC)cc1N1CCN(CC)CC1 [compound 18] | 983 | 11.1 | 8.9 | 88.8
17 | C=CC(=O)Nc1cc(Nc2cc(-c3ccc4c(cnn4C)c3)ncn2)c(OC)cc1N1CCN(C(C)C)CC1 [compound 19] | 850 | 18.1 | 10.7 | 47.0
18 | C=CC(=O)Nc1cc(Nc2cc(-c3ccc4c(cnn4C)c3)ncn2)c(OC)cc1N1CCN(C(C)=O)CC1 [compound 20] | 1570 | 46.1 | 24.9 | 33.9

Row | Compound | IC50 (A-431) [nM] | IC50 (NCI-H1975) [nM] | IC50 (PC-9) [nM] | A-431/NCI-H1975 Selectivity (NCI-H1975)
19 | C=CC(=O)Nc1cc(Nc2cc(-c3ccc4c(cnn4C)c3)ncn2)c(OC)cc1N1CCN(C)C[C@H]1C [compound 21] | 2770 | 46.4 | 29.6 | 59.7
20 | C=CC(=O)Nc1cc(Nc2cc(-c3ccc4c(cnn4C)c3)ncn2)c(OC)cc1N1CCN(C)C(C)C1 (stereo not drawn) [compound 22] | 1060 | 18.1 | 13.4 | 58.3
21 | C=CC(=O)Nc1cc(Nc2cc(-c3ccc4c(cnn4C)c3)ncn2)c(OC)cc1N1C[C@@H]2C[C@H]1CN2C [compound 25] | 736 | 54.7 | 67.8 | 13.5
22 | C=CC(=O)Nc1cc(Nc2cc(-c3ccc4c(cnn4C)c3)ncn2)c(OC)cc1N1CCN(CC)[C@@H](C)C1 [compound 28] | 1430 | 32.3 | 19.6 | 44.2
23 | C=CC(=O)Nc1cc(Nc2cc(-c3ccc4c(cnn4C)c3)ncn2)c(OC)cc1N1CCN(CC)[C@H](C)C1 [compound 29] | 1810 | 55.7 | 79.9 | 32.6
24 | C=CC(=O)Nc1cc(Nc2cc(-c3ccc4c(cnn4C)c3)ncn2)c(OC)cc1N1CCN(C)[C@@H](C)C1 [compound 30] | 1350 | 32.4 | 24.7 | 41.8
25 | C=CC(=O)Nc1cc(Nc2cc(-c3ccc4c(cnn4C)c3)ncn2)c(OC)cc1N1CCN(C)[C@H](C)C1 [compound 31] | 1580 | 52.7 | 45.6 | 29.9
26 | C=CC(=O)Nc1cc(Nc2cc(-c3ccc4c(cnn4C)c3)ncn2)c(OC)cc1N1CCN(CC(F)(F)F)CC1 [compound 32] | 9330 | 186 | 10.9 | 50.1
27 | C=CC(=O)Nc1cc(Nc2cc(-c3ccc4c(cnn4C)c3)ncn2)c(OC)cc1N(C)C1CCN(C)CC1 [compound 35] | 1590 | 13.2 | 16.4 | –
28 | C=CC(=O)Nc1cc(Nc2cc(-c3ccc4c(cnn4C)c3)ncn2)c(OC)cc1N(C)CCN1CCCC1 [compound 36] | 1010 | 31.4 | 22 | 32.3
29 | C=CC(=O)Nc1cc(Nc2cc(-c3ccc4c(cnn4C)c3)ncn2)c(OC)cc1N(C)CCN1CCCCC1 [compound 37] | 1720 | 67.5 | 79.8 | 25.5
30 | C=CC(=O)Nc1cc(Nc2cc(-c3ccc4c(cnn4C)c3)ncn2)c(OC)cc1N(C)CCN1CCOCC1 [compound 38] | 3310 | 75.9 | 89.7 | 43.7
31 | C=CC(=O)Nc1cc(Nc2cc(-c3ccc4c(cnn4C)c3)ncn2)c(OC)cc1N1CCCN(C)CC1 [compound 39] | 973 | 24.5 | 25.7 | 39.6
32 | C=CC(=O)Nc1cc(Nc2cc(-c3ccc4c(cnn4C)c3)ncn2)c(OC)cc1N(C)CCCN(C)C [compound 40] | 1960 | 57 | 46.1 | 34.5
33 | C=CC(=O)Nc1cc(Nc2cc(-c3ccc4cnn(C)c4c3)ncn2)c(OC)cc1N1CCN(C)C(C)C1 (stereo not drawn) [compound 41] | 612 | 20.4 | 10.6 | 30.0
34 | C=CC(=O)Nc1cc(Nc2cc(-c3ccc4c(cnn4C)c3)ncn2)c(OC)cc1N(C)C1CCN(C)C1 (stereo not drawn) [compound 57] | 1420 | 13.3 | – | –
35 | C=CC(=O)Nc1cc(Nc2cc(-c3ccc4c(cnn4C)c3)ncn2)c(OC)cc1N(C)C1CCOCC1 [compound 106] | 2020 | 96.9 | – | 20.8

From US11352352B2, “Aminopyrimidine compound, preparation method therefor and use thereof” (BEIJING ADAMADLE BIOTECHNOLOGY LIMITED LIABILITY COMPANY, priority 2017, dated 2022)
